Reference: patent publication US20100267561A1, “HERBICIDAL PYRIDAZINONE DERIVATIVES” (priority 2007, published 2010)

How the values were obtained:
Test in all cases: Test E pre-/postemergence plant response
Format in all cases: in vivo
Conditions in all cases: Postemergence, scale 0 to 100
[1] = tested on: purple nutsedge (Cyperus rotundus)
In short: (§1)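 Plants scored visually versus controls on a 0–100 scale (100 = complete control) 14 to 21 days after treatment in the greenhouse. Test chemicals in a surfactant-containing non-phytotoxic solvent were applied to soil preemergence or to 1- to 4-leaf plants, 2–18 cm tall.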

[2] = tested on: barnyardgrass (Echinochloa crus-galli)
In short: as §1

[3] = tested on: southern (S.) sandbur (Cenchrus echinatus)
In short: as §1

[4] = tested on: johnsongrass (Sorghum halepense)
In short: as §1

[5] = tested on: annual bluegrass (Poa annua)
In short: as §1

[6] = tested on: dallisgrass (Paspalum dilatatum)
In short: as §1

[7] = tested on: naked crabgrass (Digitaria nuda)
In short: as §1

[8] = tested on: common purslane (Portulaca oleracea)
In short: as §1

[9] = tested on: black mustard (Brassica nigra)
In short: as §1

[10] = tested on: pitted morningglory (Ipomoea lacunosa)
In short: as §1

[11] = tested on: common groundsel (Senecio vulgaris)
In short: as §1

[12] = tested on: broadleaf signalgrass (Brachiaria platyphylla)
In short: as §1

[13] = tested on: bermudagrass (Cynodon dactylon)
In short: as §1

[14] = tested on: Italian ryegrass (Lolium multiflorum)
In short: as §1

[15] = tested on: large crabgrass (Digitaria sanguinalis)
In short: as §1

[16] = tested on: guineagrass (Panicum maximum)
In short: as §1

[17] = tested on: goosegrass (Eleusine indica)
In short: as §1

Cc1cc(-c2ccc(Cl)cc2)nn1-c1c(OC(=O)c2cccc(Cl)c2)cnn(C)c1=O [Compound 32]
80: Plant response rating, Sandbur, S. ([3]; 31 g ai/ha) | Plant response rating, Sandbur, S. ([3]; 62 g ai/ha) | Plant response rating, Johnsongrass ([4]; 16 g ai/ha) | Plant response rating, Crabgrass, Naked ([7]; 31 g ai/ha) | Plant response rating, Signalgrass ([12]; 8 g ai/ha) | Plant response rating, Signalgrass ([12]; 16 g ai/ha) | Plant response rating, Crabgrass, Large ([15]; 62 g ai/ha) | Plant response rating, Goosegrass ([17]; 62 g ai/ha)
95: Plant response rating, Signalgrass ([12]; 31 g ai/ha) | Plant response rating, Ryegrass, Italian ([14]; 16 g ai/ha) | Plant response rating, Ryegrass, Italian ([14]; 31 g ai/ha)
60: Plant response rating, Sandbur, S. ([3]; 8 g ai/ha) | Plant response rating, Crabgrass, Naked ([7]; 8 g ai/ha) | Plant response rating, Goosegrass ([17]; 31 g ai/ha)
100: Plant response rating, Barnyardgrass ([2]; 31 g ai/ha) | Plant response rating, Barnyardgrass ([2]; 62 g ai/ha) | Plant response rating, Johnsongrass ([4]; 62 g ai/ha) | Plant response rating, Signalgrass ([12]; 62 g ai/ha) | Plant response rating, Guineagrass ([16]; 62 g ai/ha)
40: Plant response rating, Dallisgrass ([6]; 62 g ai/ha) | Plant response rating, Bermudagrass ([13]; 31 g ai/ha)
35: Plant response rating, Morningglory ([10]; 16 g ai/ha) | Plant response rating, Morningglory ([10]; 31 g ai/ha) | Plant response rating, Crabgrass, Large ([15]; 8 g ai/ha) | Plant response rating, Goosegrass ([17]; 8 g ai/ha) | Plant response rating, Goosegrass ([17]; 16 g ai/ha)
90: Plant response rating, Crabgrass, Naked ([7]; 62 g ai/ha) | Plant response rating, Guineagrass ([16]; 8 g ai/ha)
98: Plant response rating, Barnyardgrass ([2]; 8 g ai/ha) | Plant response rating, Barnyardgrass ([2]; 16 g ai/ha) | Plant response rating, Johnsongrass ([4]; 31 g ai/ha) | Plant response rating, Ryegrass, Italian ([14]; 62 g ai/ha) | Plant response rating, Guineagrass ([16]; 16 g ai/ha) | Plant response rating, Guineagrass ([16]; 31 g ai/ha)
5: Plant response rating, Bermudagrass ([13]; 8 g ai/ha)
0: Plant response rating, Nutsedge, Purple ([1]; 8 g ai/ha) | Plant response rating, Nutsedge, Purple ([1]; 16 g ai/ha) | Plant response rating, Nutsedge, Purple ([1]; 31 g ai/ha) | Plant response rating, Nutsedge, Purple ([1]; 62 g ai/ha) | Plant response rating, Bluegrass ([5]; 8 g ai/ha) | Plant response rating, Bluegrass ([5]; 16 g ai/ha) | Plant response rating, Bluegrass ([5]; 31 g ai/ha) | Plant response rating, Bluegrass ([5]; 62 g ai/ha) | Plant response rating, Dallisgrass ([6]; 8 g ai/ha) | Plant response rating, Purslane ([8]; 8 g ai/ha) | Plant response rating, Purslane ([8]; 16 g ai/ha) | Plant response rating, Purslane ([8]; 31 g ai/ha) | Plant response rating, Purslane ([8]; 62 g ai/ha) | Plant response rating, Mustard, Black ([9]; 8 g ai/ha) | Plant response rating, Mustard, Black ([9]; 16 g ai/ha) | Plant response rating, Mustard, Black ([9]; 31 g ai/ha) | Plant response rating, Mustard, Black ([9]; 62 g ai/ha) | Plant response rating, Morningglory ([10]; 8 g ai/ha) | Plant response rating, Groundsel ([11]; 8 g ai/ha) | Plant response rating, Groundsel ([11]; 16 g ai/ha) | Plant response rating, Groundsel ([11]; 31 g ai/ha) | Plant response rating, Groundsel ([11]; 62 g ai/ha)
20: Plant response rating, Dallisgrass ([6]; 16 g ai/ha) | Plant response rating, Bermudagrass ([13]; 16 g ai/ha)
30: Plant response rating, Dallisgrass ([6]; 31 g ai/ha)
50: Plant response rating, Johnsongrass ([4]; 8 g ai/ha) | Plant response rating, Morningglory ([10]; 62 g ai/ha)
75: Plant response rating, Sandbur, S. ([3]; 16 g ai/ha) | Plant response rating, Bermudagrass ([13]; 62 g ai/ha) | Plant response rating, Ryegrass, Italian ([14]; 8 g ai/ha) | Plant response rating, Crabgrass, Large ([15]; 16 g ai/ha) | Plant response rating, Crabgrass, Large ([15]; 31 g ai/ha)
